# Test results from article PMC8175350, “Drug repurposing screens identify chemical entities for the development of COVID-19 interventions” (Nature Communications, 2021).
# Values joined by “and” are separate entries in the source; they are usually repeats but may differ in a detail not shown here. Equal values may be shown once. Read-outs that look alike come from different tables or passages of the source.
# How the values were obtained:
# SARS-CoV-2 [1] = assay: microbe, parasite or virus in culture; assay type: cell-based; settings: for %infected: replicate wells n=1-3
# [2] = Uninfected HeLa-ACE2 24 h live/dead cytotoxicity counter screen; assay type: cell-based, human; settings: human, uninfected HeLa-ACE2 cells, geomean; read-out: uninfected HeLa-ACE2 cytotoxicity CC50
# HeLa-ACE2 cells [3] = assay: as above; assay type: cell-based, human; settings: for cytotox: HeLa-ACE2, replicate wells n=1-3
# SARS-CoV-2 [4] = assay: microbe, parasite or virus in culture; assay type: cell-based; settings: for %infected: Calu-3, replicate wells n=1, n=3
# SARS-CoV-2 [5] = assay: microbe, parasite or virus in culture; assay type: cell-based; settings: for SARS-CoV-2 % infected cells: 10 µM after 1 h infection; for TOA: HeLa-ACE2, replicate wells n=1-3
# SARS-CoV-2 [6] = assay type: cell-based
# HeLa-ACE2 cells [7] = assay: Total cell count in the HeLa-ACE2 TOA (time of addition) assay; assay type: cell-based, human; settings: Homo sapiens, HeLa-ACE2; read-out: HeLa-ACE2 TOA cell count EC50 GeoMean
# Calu-3 cells [8] = settings: read-out: Calu-3 cell count EC50 GeoMean
# Calu-3 cells [9] = system: Calu-3 cells
# HeLa-ACE2 cells [10] = assay: cells; settings: Homo sapiens
# Calu-3 cells [11] = assay: cells; settings: Homo sapiens, Calu-3, 48 h, read-out: Calu-3 cell count Sinf Average
# in vitro = settings: human, Calu-3 uninfected cytotoxicity CC50 GeoMean
smiles,measurement,setting,value
Cc1cccc(/C=N/Nc2cc(N3CCOCC3)nc(OCCc3ccccn3)n2)c1 [Apilimod],increase in EC50 from MOI = 0.09 to MOI = 2.2,SARS-CoV-2 [1]; HeLa-ACE2,3.7 fold
same,EC50,"SARS-CoV-2 [1]; HeLa-ACE2, geomean, read-out: SARS-CoV-2 EC50",0.0113 µM
same,EC50,"SARS-CoV-2 [1]; HeLa-ACE2, individual values of 9 independent experiments, read-out: EC50 (µM), Fig 1c",32 nM and 10 nM (2×) and 9 nM (3×) and 6 nM (2×) and 35 nM
same,%infected,"SARS-CoV-2 [1]; HeLa-ACE2, concentration log[M] -5.61909",-89.9366% and -97.9564% and -96.6883% and -98.5854% and -99.176% and -97.4315% and -98.076% and -88.0351% and -79.0377%
same,%infected,"SARS-CoV-2 [1]; HeLa-ACE2, concentration log[M] -6.09621",-87.038% and -98.4457% and -97.9148% and -98.877% and -98.5692% and -99.1064% and -97.5527% and -92.9215% and -87.0799%
same,%infected,"SARS-CoV-2 [1]; HeLa-ACE2, concentration log[M] -6.57334",-75.6225% and -96.1764% and -98.2769% and -98.0074% and -97.3703% and -99.7483% and -98.3422% and -89.6186% and -88.4431%
same,%infected,"SARS-CoV-2 [1]; HeLa-ACE2, concentration log[M] -7.05046",-82.6962% and -96.6541% and -97.5624% and -97.8117% and -96.6757% and -95.0973% and -96.8567% and -85.1569% and -75.3432%
same,%infected,"SARS-CoV-2 [1]; HeLa-ACE2, concentration log[M] -7.52758",-73.6156% and -84.2045% and -91.7586% and -85.2086% and -88.488% and -83.6715% and -88.6894% and -80.6843% and -66.0801%
same,%infected,"SARS-CoV-2 [1]; HeLa-ACE2, concentration log[M] -8.0047",-72.126% and -55.1215% and -37.7284% and -49.8809% and -50.2572% and -55.8328% and -53.8485%
same,Emax,"SARS-CoV-2 [1]; Severe acute respiratory syndrome coronavirus 2, HeLa-ACE2, 24 h, read-out: HeLa-ACE2 CoV-2 Sinf Average",93%
same,EC50,"SARS-CoV-2 [1]; Severe acute respiratory syndrome coronavirus 2, HeLa-ACE2, HeLa-ACE2, MOI 0.09, read-out: EC50",0.0073 µM
same,EC50,"SARS-CoV-2 [1]; Severe acute respiratory syndrome coronavirus 2, HeLa-ACE2, HeLa-ACE2, MOI 0.26, read-out: EC50",0.0136 µM
same,EC50,"SARS-CoV-2 [1]; Severe acute respiratory syndrome coronavirus 2, HeLa-ACE2, HeLa-ACE2, MOI 0.51, read-out: EC50",0.0185 µM
same,EC50,"SARS-CoV-2 [1]; Severe acute respiratory syndrome coronavirus 2, HeLa-ACE2, HeLa-ACE2, MOI 1.1, read-out: EC50",0.0196 µM
same,EC50,"SARS-CoV-2 [1]; Severe acute respiratory syndrome coronavirus 2, HeLa-ACE2, HeLa-ACE2, MOI 2.2, read-out: EC50",0.027 µM
same,EC50,"SARS-CoV-2 [1]; Severe acute respiratory syndrome coronavirus 2, HeLa-ACE2, HeLa-ACE2, geomean, read-out: SARS-CoV-2 EC50",0.011 µM
same,EC50,"SARS-CoV-2 [1]; Severe acute respiratory syndrome coronavirus 2, HeLa-ACE2, detail column, read-out: HeLa-ACE2 CoV-2 EC50 GeoMean",< 0.00639 µM
same,Emax,"SARS-CoV-2 [1]; Severe acute respiratory syndrome coronavirus 2, HeLa-ACE2, of uninfected cells at the highest effective concentrations, read-out: maximal efficacy",85 to 90%
same,HeLa-ACE2 SI,"SARS-CoV-2 [1]; selectivity index, uninfected HeLa-ACE2 CC50 / SARS-CoV-2 EC50",> 4353.33
same,CC50 at 24 h,[2],> 11.5 µM
same,cytotox,HeLa-ACE2 cells [3]; concentration log[M] -5,-15.1899 and -14.2304 and -15.9372 and -48.9424 and -19.1078 and -64.1429 and -33.3149 and -48.2124 and -41.1568
same,cytotox,HeLa-ACE2 cells [3]; concentration log[M] -5.47712,-17.5527 and -25.9243 and -24.6903 and -15.9737 and -27.2862 and -50.2857 and -23.1323 and -17.6598 and -11.2347
same,cytotox,HeLa-ACE2 cells [3]; concentration log[M] -5.95424,-21.6878 and -13.7145 and -16.6804 and -1.094 and -5.874 and -20.5714 and -18.1516 and -18.9599 and -15.1279
same,cytotox,HeLa-ACE2 cells [3]; concentration log[M] -6.43136,-15.6962 and -19.7334 and -18.8274 and -9.409 and -6.171 and -21.1429 and -10.736 and -20.585 and -14.4605
same,cytotox,HeLa-ACE2 cells [3]; concentration log[M] -6.90849,-10.4641 and -3.052 and -4.5417 and -0.2188 and 4.684 and -6.286 and -9.519 and -8.4507 and -3.003
same,cytotox,HeLa-ACE2 cells [3]; concentration log[M] -7.38561,-11.3924 and -4.944 and -1.156 and 4.012 and 4.981 and -8.571 and -7.637 and -6.609 and -5.006
same,cytotox,HeLa-ACE2 cells [3]; concentration log[M] -7.86273,2.7 and 20.6793 and 5.12 and -0.3647 and 26.8401 and -1.429 and 8.744 and -0.2167 and 1.335
same,cytotox,HeLa-ACE2 cells [3]; concentration log[M] -8.33985,2.785 and -0.6449 and 6.028 and -5.1787 and 6.3197 and -9.571 and 2.435 and -18.4182 and -5.673
same,HeLa-ACE2 uninfected cytotoxicity Sinf Average,"HeLa-ACE2 cells [3]; human, uninfected HeLa-ACE2 cells, 24 h",-100%
same,CC50,HeLa-ACE2 cells [3]; read-out: HeLa-ACE2 uninfected cytotoxicity CC50 GeoMean,> 27.8 µM
same,%infected,SARS-CoV-2 [4]; concentration log[M] -5.00096,-58.2494% and -10.7285% and -2.646% and 11.3057% and -47.5294% and -51.353%
same,%infected,SARS-CoV-2 [4]; concentration log[M] -5.47808,-10.4468% and 0.966% and 9.424% and 3.404% and -12.1011% and -29.1583%
same,%infected,SARS-CoV-2 [4]; concentration log[M] -6.08014,2.91% and 6.263% and 12.1167% and 11.1729% and -9.57% and -12.4389%
same,%infected,SARS-CoV-2 [4]; concentration log[M] -6.42922,21.192% and -5.066% and 8.086% and -7.067% and 14.7327% and 9.4894%
same,%infected,SARS-CoV-2 [4]; concentration log[M] -6.90623,6.025% and 8.588% and -2.01% and -3.119% and -8.7% and -28.761%
same,%infected,SARS-CoV-2 [4]; concentration log[M] -7.50836,-9.733% and 6.842% and -19.0732% and 2.18% and 27.3224% and 13.8795%
same,%infected,SARS-CoV-2 [4]; concentration log[M] -7.85886,-0.02646% and -15.3004% and -8.282% and -4.911% and 23.6525% and 32.9983%
same,%infected,SARS-CoV-2 [4]; concentration log[M] -8.33602,-3.111% and 7.385% and 13.7435% and 0.4251% and 25.7217% and 25.5685%
same,Emax,"SARS-CoV-2 [4]; Severe acute respiratory syndrome coronavirus 2, Calu-3, 48 h, read-out: Calu-3 CoV-2 Sinf Average",100%
same,EC50,SARS-CoV-2 [4]; read-out: Calu-3 CoV-2 EC50 GeoMean,> 9.38 µM
same,Calu-3 SI,"SARS-CoV-2 [4]; selectivity index, uninfected Calu-3 CC50 / SARS-CoV-2 EC50",> 2.42
same,SARS-CoV-2 % infected cells,SARS-CoV-2 [5]; 4:00:00 post infection,0.1789% and 0.1674% and 0.3723%
same,SARS-CoV-2 % infected cells,SARS-CoV-2 [5]; 5:00:00,0.5955% and 0.5104% and 0.3072%
same,SARS-CoV-2 % infected cells,SARS-CoV-2 [5]; 6:00:00,15.0073% and 13.3408% and 11.3931%
same,SARS-CoV-2 % infected cells,SARS-CoV-2 [5]; 7:00:00,26.4613% and 25.6934% and 26.6142%
same,SARS-CoV-2 % infected cells,SARS-CoV-2 [5]; 8:00:00,25.5362% and 27.3903% and 25.8074%
same,SARS-CoV-2 % infected cells,SARS-CoV-2 [5]; 10:00:00,26.7887% and 26.2316% and 26.281%
same,SARS-CoV-2 % infected cells,SARS-CoV-2 [5]; 11:00:00,30.9861% and 29.9763% and 30.0495%
same,SARS-CoV-2 % infected cells,SARS-CoV-2 [5]; 12:00:00,30.3761% and 30.6313% and 31.3141%
same,SARS-CoV-2 % infected cells,SARS-CoV-2 [5]; 24:00:00,17.8372% and 19.3932% and 18.4264%
same,activity when treatment was initiated at 1 hpi,"SARS-CoV-2 [5]; HeLa-ACE2, 10 µM",Loss of activity
same,TOA,SARS-CoV-2 [5]; concentration log[M] -5.61909,-9.8778 and -6.262 and 0.3048 and -11.9309 and -26.5472 and -5.999 and -10.1028 and 0.08491 and -22.8314
same,TOA,SARS-CoV-2 [5]; concentration log[M] -6.09621,1.8452 and 11.477 and 4.5258 and -10.0091 and -14.0586 and -2.797 and -23.1834 and -27.6557 and -36.518
same,TOA,SARS-CoV-2 [5]; concentration log[M] -6.57334,-3.994 and -3.466 and -5.79 and -4.984 and -4.372 and -2.992 and -21.4509 and 1.122 and -26.1046
same,TOA,SARS-CoV-2 [5]; concentration log[M] -7.05046,-6.181 and -4.5978 and -2.954 and -15.6715 and -7.849 and -0.2917 and -3.649 and -3.511 and -18.2837
same,TOA,SARS-CoV-2 [5]; concentration log[M] -7.52758,6.077 and -0.625 and 10.6098 and -1.822 and 4.214 and -1.579 and 5.171 and 1.731 and -77.382
same,TOA,SARS-CoV-2 [5]; concentration log[M] -8.0047,2.779 and 3.019 and 8.825 and -4.236 and -3.9816 and -0.9799 and 1.304 and -2.325 and -36.3674
same,TOA,SARS-CoV-2 [5]; concentration log[M] -8.48182,7.953 and 7.587 and 8.026 and -5.856 and -0.7172 and 2.883 and 9.017 and -1.346 and -21.1061
same,TOA,SARS-CoV-2 [5]; concentration log[M] -8.95894,0.4128 and 0.7327 and 13.745 and -6.2 and 7.839 and 1.622 and 7.708 and 2.325 and 1.297
same,EC50,"SARS-CoV-2 [5]; Severe acute respiratory syndrome coronavirus 2, HeLa-ACE2, HeLa-ACE2, fixed 10 hpi, geomean, read-out: CoV-2 TOA EC50",> 2.4 µM
same,EC50,SARS-CoV-2 [5]; read-out: HeLa-ACE2 TOA CoV-2 EC50 GeoMean,> 9.61 µM
same,effect on viral replication in ALI-HBECs,SARS-CoV-2 [6],did not
same,EC50,HeLa-ACE2 cells [7],> 9.61 µM
same,EC50,Calu-3 cells [8],> 9.98 µM
same,uninfected Calu-3 CC50,Calu-3 cells [9],> 22.719 ×÷ 1.728 (n=4) μM
same,Calu-3 uninfected cytotoxicity Sinf Average,"Calu-3 cells [9]; human, 48 h",-100%
same,Emax,"HeLa-ACE2 cells [10]; HeLa-ACE2, 24 h, read-out: HeLa-ACE2 cell count Sinf Average",100%
same,EC50,"HeLa-ACE2 cells [10]; HeLa-ACE2, read-out: cell count in infection assay EC50, HeLa-ACE2, geomean, ^↑ = increasing dose-response curve",> 2.4 µM
same,Emax,Calu-3 cells [11],100%
same,CC50 at 48 h,in vitro,> 22.7 µM
